In ChEMBL document CHEMBL1135332, “Synthesis and cytotoxic activity of pyridazino[1',6':1,2]pyrido[3,4-b]indol-5-inium derivatives as anti-cancer agents” (Bioorg Med Chem Lett, 2002):

What was measured:
[1] = tested on: L1210; settings: Mus musculus
Description: Effect on L1210 cell cycle was determined and percent of treated cells in the G2M phase of L1210 leukemia cells was determined; NS implies not significant.

[2] = tested on: L1210; experiment: Inhibitory concentration required against L1210 leukemia cells; type: functional, cell-based; settings: Mus musculus
[3] = tested on: L1210; settings: Mus musculus; remark: listed apart in the source
Description: Effect on L1210 cell cycle was determined and percent of treated cells in the G1 phase of L1210 leukemia cells was determined; NS implies not significant.

[4] = tested on: L1210; experiment: Effect of compound on L1210 cell cycle was determined and percent of treated cells in the G2M phase of L1210 leukemia cells; type: functional, Mus musculus
[5] = tested on: L1210; experiment: Effect on L1210 cell cycle was determined and percent of treated cells in the G1 phase of L1210 leukemia cells was determined; type: functional, Mus musculus
[6] = tested on: L1210; experiment: Effect of compound on L1210 cell cycle was determined and percent of treated cells in the G2M phase of L1210 leukemia cells was determined; type: functional, Mus musculus
[7] = tested on: L1210; experiment: Cytotoxic concentration against L1210 leukemia cells was determined; 30% apoptosis ([…]) was observed; type: functional, cell-based; settings: Mus musculus

## CCOC(=O)CCCn1c2cc(OC)ccc2c2cc[n+]3nc(CC)c(CC)cc3c21
[1]
  Treated cells: Not significant
[2]
  IC50: 2000 nM
[3]
  Treated cells: Not significant

## COc1ccc2c(c1)[nH]c1c2cc[n+]2nc(C)c(C)cc12
[4]
  Treated cells: 38%
[2]
  IC50: 1300 nM

## CCCCCn1c2cc(OC)ccc2c2cc[n+]3nc(C)c(C)cc3c21
[2]
  IC50: 48 nM
[5]
  Treated cells: 57%

## CC[C@@]1(O)C(=O)OCc2c1cc1n(c2=O)Cc2cc3ccccc3nc2-1 [CAMPTOTHECIN]
[6]
  Treated cells: 80%
[2]
  IC50: 30 nM

## CCc1cc2c3c(cc[n+]2nc1CC)c1ccc(OC)cc1n3C
[2]
  IC50: 1100 nM
[5]
  Treated cells: 65%

## CCc1cc2c3[nH]c4ccc(Br)cc4c3cc[n+]2nc1CC
[1]
  Treated cells: Not significant
[2]
  IC50: 2300 nM
[3]
  Treated cells: Not significant

## CCCCCn1c2cc(OC)ccc2c2cc[n+]3nc(CC)c(CC)cc3c21
[2]
  IC50: 65 nM
[5]
  Treated cells: 60%

## CCc1cc2c3[nH]c4ccc([N+](=O)[O-])cc4c3cc[n+]2nc1CC
[1]
  Treated cells: Not significant
[2]
  IC50: 15300 nM
[3]
  Treated cells: Not significant

## CCc1cc2c3[nH]c4cc(OC)ccc4c3cc[n+]2nc1CC
[4]
  Treated cells: 35%
[2]
  IC50: 2000 nM

## COc1ccc2c3cc[n+]4nc(/C=C/[Si](C(C)C)(C(C)C)C(C)C)c(/C=C/[Si](C(C)C)(C(C)C)C(C)C)cc4c3n(C)c2c1
[2]
  IC50: 2300 nM

## C#CCCCn1c2cc(OC)ccc2c2cc[n+]3nc(-c4ccco4)c(-c4ccco4)cc3c21
[2]
  IC50: 1300 nM
[5]
  Treated cells: 54%

## CCOC(=O)Cn1c2cc(OC)ccc2c2cc[n+]3nc(CC)c(CC)cc3c21
[6]
  Treated cells: 46%
[2]
  IC50: 1100 nM

## CCc1cc2c3[nH]c4cc(O)ccc4c3cc[n+]2nc1CC
[1]
  Treated cells: Not significant
[2]
  IC50: 10000 nM
[3]
  Treated cells: Not significant

## CCc1cc2c3c(cc[n+]2nc1CC)c1ccccc1n3CCCBr
[1]
  Treated cells: Not significant
[2]
  IC50: 1900 nM
[3]
  Treated cells: Not significant

## C#CCNC(=O)Cn1c2ccccc2c2cc[n+]3nc(-c4cccc5ccccc45)c(-c4cccc5ccccc45)cc3c21
[1]
  Treated cells: Not significant
[2]
  IC50: 10400 nM
[3]
  Treated cells: Not significant

## CCc1cc2c3[nH]c4c([N+](=O)[O-])cccc4c3cc[n+]2nc1CC
[1]
  Treated cells: Not significant
[2]
  IC50: 1500 nM
[7]
  Concentration: 5 µM
[3]
  Treated cells: Not significant

## CCc1cc2c3[nH]c4c(N)cccc4c3cc[n+]2nc1CC
[1]
  Treated cells: Not significant
[2]
  IC50: 1000 nM
[7]
  Concentration: 5 µM
[3]
  Treated cells: Not significant

## Cc1cc2c3[nH]c4cc(OCc5ccccc5)ccc4c3cc[n+]2nc1C
[1]
  Treated cells: Not significant
[2]
  IC50: 5200 nM
[3]
  Treated cells: Not significant

## C#CCNC(=O)Cn1c2cc(OC)ccc2c2cc[n+]3nc(CC)c(CC)cc3c21
[2]
  IC50: 72900 nM

## CCOC(=O)Cn1c2cc(OC)ccc2c2cc[n+]3nc(C)c(C)cc3c21
[1]
  Treated cells: Not significant
[2]
  IC50: 5000 nM
[3]
  Treated cells: Not significant

## COc1cccc2c1C(=O)c1c(O)c3c(c(O)c1C2=O)C[C@@](O)(C(=O)CO)C[C@@H]3O[C@H]1C[C@H](N)[C@H](O)[C@H](C)O1 [DOXORUBICIN]
[6]
  Treated cells: 81%

## CCc1cc2c3[nH]c4cc(OCc5ccccc5)ccc4c3cc[n+]2nc1CC.[Br-]
[2]
  IC50: 1900 nM
[5]
  Treated cells: 54%
